Source: ChEMBL document CHEMBL1201862, “PubChem BioAssay data set” (2004)
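Test compounds were applied to cells in 96-well plates for 48 hours at 5 doses. GI50 = concentration required for 50% inhibition of growth.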 Activity calls are given as the source filed them. Cut-off read from the data, not from the text of the source: active = GI50 up to about 1.1 µM and inactive = higher.

Tests used:
Test in all cases: NCI-60 cell line screen, 48 h
MOLT-4 = test system: MOLT-4
CAKI-1 = test system: CAKI-1
COLO 205 = test system: COLO 205
SK-MEL-28 = test system: SK-MEL-28
RPMI-8226 = test system: RPMI-8226
IGROV-1 = test system: IGROV-1
HOP-92 = test system: HOP-92
HOP-62 = test system: HOP-62
HL-60 = test system: HL-60
CCRF-CEM = test system: CCRF-CEM
HT-29 = test system: HT-29
786-0 = test system: 786-0
M14 = test system: M14
KM12 = test system: KM12
SN12C = test system: SN12C
MDA-MB-231 = test system: MDA-MB-231
OVCAR-8 = test system: OVCAR-8
NCI-H460 = test system: NCI-H460
SF-539 = test system: SF-539
NCI-H522 = test system: NCI-H522

Measured: GI50

Clc1cccc(-c2sc(-c3ccsc3)cc2Cc2ccsc2)c1
inactive: MOLT-4 > 10 µM | CAKI-1 > 10 µM | COLO 205 > 10 µM | SK-MEL-28 > 10 µM | RPMI-8226 > 10 µM | IGROV-1 > 10 µM | HOP-92 > 10 µM | HOP-62 > 10 µM | HL-60 > 10 µM | CCRF-CEM > 10 µM | HT-29 > 10 µM | 786-0 > 10 µM | M14 > 10 µM | KM12 > 10 µM | SN12C > 10 µM | MDA-MB-231 > 10 µM | OVCAR-8 > 10 µM

CCN(CCC#N)C(=O)Nc1ccccc1
inactive: NCI-H460 > 100 µM | MOLT-4 > 100 µM | SF-539 > 100 µM | CAKI-1 > 100 µM | COLO 205 > 100 µM | SK-MEL-28 > 100 µM | RPMI-8226 > 100 µM | IGROV-1 > 100 µM | HOP-92 > 100 µM | NCI-H522 > 100 µM | HOP-62 > 100 µM | CCRF-CEM > 100 µM | HT-29 > 100 µM | 786-0 > 100 µM | M14 > 100 µM | KM12 86.7 µM | SN12C > 100 µM | MDA-MB-231 > 100 µM | OVCAR-8 > 100 µM

c1ccc(CNCCCCNCCCNCc2ccccc2)cc1
inactive: NCI-H460 15.3 µM | MOLT-4 14.3 µM | CAKI-1 13.6 µM | COLO 205 13.6 µM | SK-MEL-28 16 µM | RPMI-8226 27.7 µM | IGROV-1 13.1 µM | HOP-92 11.8 µM | NCI-H522 15.2 µM | HOP-62 22.2 µM | CCRF-CEM 13 µM | HT-29 15.2 µM | 786-0 17.2 µM | M14 29.1 µM | KM12 20 µM | SN12C 19.8 µM | MDA-MB-231 15.2 µM | OVCAR-8 > 10 µM

O=c1[nH]/c(=C/c2ccc3c(c2)OCO3)c(=O)[nH]/c1=C/c1ccc2c(c1)OCO2
inactive: NCI-H460 > 10 µM | MOLT-4 > 10 µM | SF-539 > 10 µM | CAKI-1 > 10 µM | COLO 205 > 10 µM | SK-MEL-28 8.89 µM | RPMI-8226 > 10 µM | IGROV-1 > 10 µM | HOP-92 > 10 µM | NCI-H522 > 10 µM | HOP-62 > 10 µM | CCRF-CEM > 10 µM | HT-29 > 10 µM | 786-0 > 10 µM | M14 > 10 µM | KM12 > 10 µM | SN12C > 10 µM | MDA-MB-231 > 10 µM | OVCAR-8 > 10 µM

Cc1ccc(-n2cc([Si](C)(C)C)nn2)s1
inactive: NCI-H460 > 100 µM | SF-539 > 100 µM | CAKI-1 > 100 µM | COLO 205 61.8 µM | SK-MEL-28 > 100 µM | RPMI-8226 22.9 µM | HOP-92 > 100 µM | NCI-H522 > 100 µM | HT-29 34.8 µM | 786-0 > 100 µM | M14 > 100 µM | SN12C > 100 µM | MDA-MB-231 > 100 µM | OVCAR-8 > 100 µM

CCOC(=O)Cn1c2ccc(Br)cc2c2nc3ccccc3nc21
inactive: MOLT-4 > 100 µM | CAKI-1 > 100 µM | COLO 205 > 100 µM | SK-MEL-28 > 100 µM | RPMI-8226 > 100 µM | IGROV-1 55.7 µM | HOP-92 > 100 µM | HOP-62 > 100 µM | CCRF-CEM > 100 µM | HT-29 > 100 µM | 786-0 > 100 µM | M14 > 100 µM | KM12 > 100 µM | SN12C > 100 µM | MDA-MB-231 > 100 µM | OVCAR-8 > 100 µM

Oc1ccc(/N=C/c2ccc(/C=N/c3ccc(O)cc3)cc2)cc1
inactive: NCI-H460 24.4 µM | MOLT-4 3.88 µM | SF-539 15.3 µM | CAKI-1 20 µM | COLO 205 18.5 µM | SK-MEL-28 18.8 µM | RPMI-8226 10.1 µM | IGROV-1 20 µM | HOP-92 24.7 µM | NCI-H522 17.7 µM | HOP-62 17.6 µM | CCRF-CEM 6.41 µM | HT-29 19.8 µM | 786-0 15.3 µM | M14 17.1 µM | KM12 15.3 µM | SN12C 14.9 µM | MDA-MB-231 14.2 µM | OVCAR-8 13.8 µM

OCCNC1=Nc2ccc(Cl)cc2C(=S)N2CSC[C@@H]12
inactive: NCI-H460 > 100 µM | MOLT-4 > 100 µM | SF-539 > 100 µM | CAKI-1 > 100 µM | COLO 205 > 100 µM | SK-MEL-28 > 100 µM | RPMI-8226 > 100 µM | HOP-92 > 100 µM | NCI-H522 > 100 µM | HOP-62 > 100 µM | HT-29 > 100 µM | 786-0 > 100 µM | M14 > 100 µM | KM12 > 100 µM | SN12C > 100 µM | MDA-MB-231 > 100 µM | OVCAR-8 > 100 µM

CCCCOC(=O)NC(=O)c1cn(CCCOC(=O)CCCCCCCCC(=O)OCCCn2cc(C(=O)NC(=O)OCCCC)c(=O)n(C)c2=O)c(=O)n(C)c1=O
inactive: NCI-H460 > 100 µM | MOLT-4 > 100 µM | SF-539 > 100 µM | CAKI-1 > 100 µM | COLO 205 > 100 µM | SK-MEL-28 > 100 µM | RPMI-8226 > 100 µM | IGROV-1 > 100 µM | HOP-92 > 100 µM | NCI-H522 > 100 µM | HOP-62 > 100 µM | HL-60 > 100 µM | CCRF-CEM > 100 µM | HT-29 > 100 µM | 786-0 > 100 µM | M14 > 100 µM | KM12 > 100 µM | SN12C > 100 µM | OVCAR-8 > 100 µM

[O-][S+](Cc1cc2c(cc1Br)OCO2)c1ccccc1 (centres undefined)
inactive: NCI-H460 41.4 µM | MOLT-4 26.5 µM | SF-539 32.7 µM | CAKI-1 51.5 µM | COLO 205 34.2 µM | SK-MEL-28 98.2 µM | RPMI-8226 24.8 µM | IGROV-1 39.4 µM | HOP-92 83.9 µM | NCI-H522 21.6 µM | HOP-62 > 100 µM | HL-60 21.4 µM | CCRF-CEM 19.6 µM | HT-29 34 µM | 786-0 39.1 µM | M14 48.2 µM | KM12 17.9 µM | SN12C 48 µM | OVCAR-8 41.4 µM

O=C(O)c1ccccc1C(=O)Nn1cnnc1
inactive: MOLT-4 > 100 µM | SF-539 > 100 µM | COLO 205 > 100 µM | SK-MEL-28 > 100 µM | RPMI-8226 > 100 µM | IGROV-1 > 100 µM | HOP-92 > 100 µM | NCI-H522 > 100 µM | HOP-62 > 100 µM | CCRF-CEM > 100 µM | HT-29 > 100 µM | 786-0 > 100 µM | M14 > 100 µM | KM12 > 100 µM | SN12C > 100 µM | MDA-MB-231 > 100 µM | OVCAR-8 > 100 µM
